The values below are quoted from earlier work in article PMC7751758, “Repurposing Sigma-1 Receptor Ligands for COVID-19 Therapy?” (Frontiers in Pharmacology, 2020).

The test system of one series is HCoV-229E. The following applies: replication in cell culture, ref de Wilde et al., 2014, listed as chloroquine.
Series [1] has as its system EBOV. The following applies: guinea pig, in vivo.
Series [2] relates to EBOV. Conditions: mouse, in vivo.
The test system of another series is COVID-19. The following applies: 2020.
The conditions of series [3]: associated with bioaccumulation of the drugs; ref Palmeira et al., 2020.
For series [4], the system named is HCoV-OC43. The following applies: mothers treated daily with chloroquine (15 mg/kg); ref Keyaerts et al., 2009.
Another series relates to CHIKV. The following applies: cytopathic effect induced by Chikungunya virus and other alphaviruses (Semliki Forest virus and Sindbis virus), ref Pohjala et al., 2011, listed as chloroquine.
Series [5] has as its system HCoV-OC43. Conditions: replication in HRT-18 cells, ref Keyaerts et al., 2009.
Another series relates to HIV. The following applies: exposure to cocaine, by activating Sig-1R; ref Roth et al., 2005.
In a further series the test system is HCV. The following applies: entry and assembly steps in Huh-7.5.1 cells, ref Cheng et al., 2013.
For series [6], the system named is SARS-CoV-2 in Huh-7 cells. The following applies: for antiviral potency: devoid of cytotoxicity, ref Mirabelli et al., 2020.
Another series relates to Ebola. Conditions: in vivo.
The test system of a further series is Huh-7 cells. Conditions: ref Mirabelli et al., 2020; read-out: CC50 (cell toxicity).
Series [7] concerns SARS-CoV-2 in iPSC-derived alveolar epithelial type 2 cells (iAEC2s). Conditions: ref Mirabelli et al., 2020, read-out: IC50 against SARS-CoV-2.

Entries after “also recorded” stand apart in the source; their conditions may differ. A value given as a limit tells only on which side of the number the result lay.

For `CCN(CC)CCCC(C)Nc1ccnc2cc(Cl)ccc12` (centres unmarked) [Chloroquine], the “Antiviral activity: Virus” value in the series on HCoV-229E was “inhibited the replication”; in the series with SARS-CoV, “inhibited the replication of SARS-CoV; also recorded: in vitro activity”; with CHIKV it was “inhibition of the cytopathic effect”; with HCoV-OC43 [5], “inhibited HCoV-OC43 replication”; in the series on MERS-CoV, “in vitro activity”. The survival result in the series with EBOV [1] is “none of the tested doses increased survival”. The “survival of infected mice” value with EBOV [2] is reported as “increased survival”. Besides, the cellular toxicity in the series with Ebola virus (EBOV) is under 30%. For the same compound, the viral inhibition in the series on Ebola virus (EBOV) is reported as over 50%. For the same compound, in the series with COVID-19 (large, randomized clinical trial in hospitalized patients, ref FDA communication), the “decreasing the likelihood of death or speeding recovery” value is recorded as “no benefit”. In [3], the side effects result is “serious retinopathies and cardiopathies”. Moreover, in the series on HCoV-OC43 [4], the “HCoV-OC43-induced death in newborn mice” value is reported as “prevented HCoV-OC43-induced death”. The IC50 (usually the midpoint of a concentration-inhibition curve) on Sigma-1 receptor (read-out: Sigma-1 receptor affinity IC50) is 2300 nM. Besides, the Ki (commonly the dissociation constant of the complex between target and ligand, obtained from inhibition or displacement) on Sigma-1 receptor (read-out: Sigma-1 receptor affinity Ki) was 109 nM.
As to `COC(=O)[C@H]1[C@@H](OC(=O)c2ccccc2)C[C@@H]2CC[C@H]1N2C` [cocaine], the HIV infection result in the series on HIV is on record as “enhance HIV infection”.
In the case of `CCCCc1oc2ccccc2c1C(=O)c1cc(I)c(OCCN(CC)CC)c(I)c1` [Amiodarone], the figures for the “Antiviral activity: Virus” value in the series with HCV and in the series on SARS-CoV were “inhibit” and “inhibit the spreading in vitro of SARS-CoV”, respectively. The antiviral potency entry in series [6] is given as “below 1 µM”. The “survival of infected mice” value in the series on EBOV [2] is listed as “increased survival”. For the same compound, in the series on Ebola virus (EBOV), the viral inhibition is listed as over 50%. Also, the “case fatality rate compared with local historical data” value with Ebola is given as “decrease in case fatality rate”. For the same compound, in the series with COVID-19 (case report, off-label short therapy 5 days with supportive measures, ref Castaldo et al.), the “outcome of a patient with COVID-19-related respiratory failure” value is recorded as “recovered”.
Consider `Cc1cc(OCCN2CCOCC2)nn1-c1ccc2ccccc2c1` [E-52862 (S1RA)], for which the antiviral potency result in [6] is “below 1 µM”. Moreover, the 50% inhibitory concentration (IC50) in [6] (ref Mirabelli et al., 2020, read-out: IC50 against SARS-CoV-2) was 222 nM; in series [7], 1000 nM. In the series on Huh-7 cells, the CC50 (as a rule, the concentration that lowers cell viability or growth by half) is over 5000 nM.
